The target in the test is T1, cannabinoid receptor 1 (CB1R, hCB1R) (Homo sapiens, UniProt P21554).
T1 construct: gene CNR1; purified human CB1R (hCB1R) protein that is close to its full-length (473 amino acids)
In words: biochemical. Format: binding.

T1 sequence (P21554 whole entry): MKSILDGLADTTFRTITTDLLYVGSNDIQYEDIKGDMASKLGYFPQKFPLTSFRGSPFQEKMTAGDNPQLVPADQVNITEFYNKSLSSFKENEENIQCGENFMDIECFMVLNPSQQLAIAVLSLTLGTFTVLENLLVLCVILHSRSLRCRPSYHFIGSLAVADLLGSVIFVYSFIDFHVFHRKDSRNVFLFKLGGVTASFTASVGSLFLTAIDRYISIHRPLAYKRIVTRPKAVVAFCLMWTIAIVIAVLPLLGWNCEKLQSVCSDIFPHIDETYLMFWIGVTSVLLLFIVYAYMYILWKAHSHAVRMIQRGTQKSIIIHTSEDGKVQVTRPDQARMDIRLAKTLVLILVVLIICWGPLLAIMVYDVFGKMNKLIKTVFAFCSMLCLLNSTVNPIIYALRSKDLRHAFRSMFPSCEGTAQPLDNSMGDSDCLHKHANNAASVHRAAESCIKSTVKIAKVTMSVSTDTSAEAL

Turning to `CN1CCN(C2=Nc3cc(Cl)ccc3Nc3ccccc32)CC1` [Clz, clozapine], the Kd (usually the constant that tells how readily two partners part at equilibrium) is 2.65 nM. The figure for `Cc1cc2c(s1)Nc1ccccc1N=C2N1CCN(C)CC1` [Olz, olanzapine] is 2.53 nM.

The values above are taken from paper PMC9225989 (Signal Transduction and Targeted Therapy, 2022).
